Data on 3 compounds can be found in paper PMC6511888, “Synthesis, Biological Evaluation, and Molecular Modeling Studies of New Thiadiazole Derivatives as Potent P2X7 Receptor Inhibitors” (Frontiers in Chemistry, 2019).

Structures are written as SMILES.

Assay type in all cases: cell-based
The test system of one assay is P2X3R. The experiment in a line: α,β-meATP-induced [Ca2+]i shift. The conditions noted are these: 10 μM. On the procedure:
(§1) Mouse peritoneal macrophages, PC12 cells, J774 cells, and HEPG2 cells were analyzed by fluorescence microscopy to measure the intracellular Ca^2+ concentrations ([Ca^2+]i). Cells were incubated with 2 μM Fura-2-AM (Molecular Probes) for 30 min, and the [Ca^2+]i mobilization was measured in the F340/F380 ratios with a FlexStation 3 multimode microplate reader (Molecular Devices). Cells were plated in translucent 96-well plates (BD Falcon) for 15 min and then washed and incubated in a saline solution with 150 NaCl, 5 KCl, 1 MgCl2, 1 CaCl2, and 10 HEPES (pH 7.4) for 30 min before measurements of [Ca^2+]i. The Ca^2+ influx was induced by stimulating cells with P2 receptor agonists. P2 receptor antagonists were added 10 min before P2 receptor agonist addition. […] Ionomycin was considered a positive control, and the other recordings were normalized in relation to the AUC.

A further assay addresses T1, P2X1R (Mus musculus, UniProt P51576).
T1 construct: endogenous in cells; host or cells: J774 cells
T1 sequence (P51576 1-399): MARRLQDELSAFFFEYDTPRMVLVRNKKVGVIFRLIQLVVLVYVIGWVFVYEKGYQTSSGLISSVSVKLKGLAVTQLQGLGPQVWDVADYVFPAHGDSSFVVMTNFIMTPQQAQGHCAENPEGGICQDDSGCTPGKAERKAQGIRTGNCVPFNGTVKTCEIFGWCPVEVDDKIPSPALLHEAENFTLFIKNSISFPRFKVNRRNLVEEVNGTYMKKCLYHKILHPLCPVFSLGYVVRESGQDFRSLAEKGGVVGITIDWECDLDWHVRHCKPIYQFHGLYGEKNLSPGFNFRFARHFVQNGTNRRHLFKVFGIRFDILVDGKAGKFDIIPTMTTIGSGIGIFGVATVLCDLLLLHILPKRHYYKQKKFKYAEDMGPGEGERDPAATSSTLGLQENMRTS
The experiment in a line: β,γ-meATP-induced intracellular Ca2+ mobilization in J774 cells. The conditions noted are these: 10 μM. As for the experimental part:
as §1

The next assay concerns the target T2, P2Y14R (Mus musculus, UniProt Q9ESG6).
T2 construct: endogenous in cells; host or cells: mouse peritoneal macrophages
T2 sequence (Q9ESG6 1-338): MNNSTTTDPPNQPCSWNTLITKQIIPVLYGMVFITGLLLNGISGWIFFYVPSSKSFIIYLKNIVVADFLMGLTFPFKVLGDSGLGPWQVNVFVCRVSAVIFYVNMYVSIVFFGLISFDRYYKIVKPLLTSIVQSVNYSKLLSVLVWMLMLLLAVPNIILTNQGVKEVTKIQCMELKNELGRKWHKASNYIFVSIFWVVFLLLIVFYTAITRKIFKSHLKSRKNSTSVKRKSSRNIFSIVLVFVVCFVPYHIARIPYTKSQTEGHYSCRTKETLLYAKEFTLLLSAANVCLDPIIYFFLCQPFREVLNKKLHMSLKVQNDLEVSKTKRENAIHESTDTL
The experiment in a line: UDP-glucose-activated [Ca2+]i shifts in mouse peritoneal macrophages. The following applies: 1 μM. On the procedure:
as §1

`Nc1ncnc2c1ncn2[C@@H]1O[C@H](COP(=O)(O)OP(=O)(O)OP(=O)(O)O)[C@H]2OC3(O[C@H]21)C([N+](=O)[O-])=CC(=[N+]([O-])[O-])C=C3[N+](=O)[O-]` (stereo partly drawn) [TNP-ATP, reference compound]: the “Effect on activity of P2X3R agonist α,β-meATP” value in the assay on P2X3R is reported as “inhibited”.
`O=C(Nc1cccc(C(=O)Nc2ccc(S(=O)(=O)O)c3cc(S(=O)(=O)O)cc(S(=O)(=O)O)c23)c1)Nc1cccc(C(=O)Nc2ccc(S(=O)(=O)O)c3cc(S(=O)(=O)O)cc(S(=O)(=O)O)c23)c1` [NF023, reference compound]: on P2X1R, the “Effect on β,γ-meATP-induced intracellular Ca2+ mobilization” value is “inhibited”.
Take `O=C(O)c1cc(-c2ccc(C3CCNCC3)cc2)c2ccc(-c3ccc(C(F)(F)F)cc3)cc2c1` [PPNT]: the “Effect on UDP-glucose-activated [Ca2+]i shifts” value on P2Y14R is reported as “inhibited”.
